ChEMBL document CHEMBL1212812, “Multi-target spectral moment QSAR versus ANN for antiparasitic drugs against different parasite species” (Bioorg Med Chem, 2010)

Experiments:
Format in all cases: functional, organism-based
Trypanosoma cruzi = assay: Antimicrobial activity against Trypanosoma cruzi; details: Trypanosoma cruzi
Leishmania donovani = assay: Antimicrobial activity against Leishmania donovani
Plasmodium falciparum = assay: Antimicrobial activity against Plasmodium falciparum
Entamoeba histolytica = assay: Antimicrobial activity against Entamoeba histolytica

SMILES	IC50 (Leishmania donovani) [µM]	IC50 (Plasmodium falciparum) [µM]	IC50 (Entamoeba histolytica) [µM]	also measured
Cn1c2nc3ccccc3c-2cc2cc(Br)ccc21	–	–	–	IC50 (Trypanosoma cruzi): 32 µM
CCCC[C@H]1C(=O)O[C@@H]2O[C@@]3(C)CC[C@H]4[C@H](C)CC[C@@H]1[C@@]24OO3	12	–	–	–
C[C@@H]1CC[C@H]2[C@@H](CCCc3ccc(Cl)cc3)C(=O)O[C@@H]3O[C@@]4(C)CC[C@@H]1[C@]32OO4	12	–	–	–
CCC[C@H]1C(=O)O[C@@H]2O[C@@]3(C)CC[C@H]4[C@H](C)CC[C@@H]1[C@@]24OO3	17	–	–	–
O=C(/C=C/C=C/c1ccc2c(c1)OCO2)N1CCCCC1 [PIPERINE]	–	–	–	IC50 (Trypanosoma cruzi): 5 µM
C[C@@H]1CC[C@H]2CC(=O)O[C@@H]3O[C@@]4(CCCc5ccc(Cl)cc5)CC[C@@H]1[C@@]23OO4	11	–	–	–
C[C@]12CC[C@H](O)C[C@@H]1CC[C@@H]1[C@@H]2CC[C@@]2(C)[C@H]1CC[C@@H]2[C@@](C)(O)C1CCCCN1 (stereo partly drawn)	–	–	–	IC50 (Trypanosoma cruzi): 1 µM
CCCN(CCC)c1c([N+](=O)[O-])cc(S(=O)(=O)Nc2cc(Cl)cc(Cl)c2)cc1[N+](=O)[O-]	4	–	–	–
O=c1ncnc2n([C@H]3O[C@@H](CO)[C@H](O)[C@@H]3O)[nH]cc1-2 [ALLOPURINOL RIBOSIDE]	4	–	–	–
C[C@@H]1CC[C@H]2[C@@H](CCCc3ccc(C(F)(F)F)cc3)CO[C@@H]3O[C@@]4(C)CC[C@@H]1[C@]32OO4	2	–	–	–
CCCN(CCC)c1c([N+](=O)[O-])cc(S(=O)(=O)N(c2ccccc2)c2ccccc2)cc1[N+](=O)[O-]	100	–	–	–
O=C(/C=C/c1ccc2c(c1)OCO2)N1CCOCC1	–	–	–	IC50 (Trypanosoma cruzi): 96 µM
c1ccc(CSCCOc2ccc(Oc3ccccc3)cc2)cc1	–	–	–	IC50 (Trypanosoma cruzi): 60 µM
CCCCN(CCCC)c1c([N+](=O)[O-])cc(S(=O)(=O)Nc2ccccc2)cc1[N+](=O)[O-]	3	–	–	–
O=C=NCCOc1ccc(Oc2ccccc2)cc1	–	–	–	IC50 (Trypanosoma cruzi): 70 µM
Cn1c2nc3ccc(C#N)cc3c-2cc2cc(F)ccc21	–	–	–	IC50 (Trypanosoma cruzi): 32 µM
C[C@@H]1CC[C@H]2[C@@H](CCCc3ccc(Cl)cc3)C(O)O[C@@H]3O[C@@]4(C)CC[C@@H]1[C@]32OO4 (stereo partly drawn)	5	–	–	–
NCCC[C@](N)(C(=O)O)C(F)F [EFLORNITHINE, (S)-]	225	–	–	–
O=C(/C=C/c1ccc2c(c1)OCO2)N1CCCCC1 [ILEPCIMIDE]	–	–	–	IC50 (Trypanosoma cruzi): 97 µM
C[C@@H]1CC[C@H]2[C@@H](CCCc3cccc(Cl)c3)CO[C@@H]3O[C@@]4(C)CC[C@@H]1[C@]32OO4	4	–	–	–
C[C@@H]1CC[C@H]2[C@@H](CCCc3ccc(Cl)c(Cl)c3)CO[C@@H]3O[C@@]4(C)CC[C@@H]1[C@]32OO4	2	–	–	–

SMILES	IC50 (Leishmania donovani) [µM]	IC50 (Plasmodium falciparum) [µM]	IC50 (Entamoeba histolytica) [µM]	also measured
C[C@@H]1CC[C@H]2[C@@H](CCCc3ccc(Cl)cc3)CO[C@@H]3O[C@@]4(C)CC[C@@H]1[C@]32OO4	5	–	–	–
CCO[C@H]1O[C@@H]2O[C@@]3(C)CC[C@H]4[C@H](C)CC[C@@H]([C@H]1C)[C@@]24OO3 [ARTEMOTIL]	45	1000	–	–
C[C@@H]1CC[C@H]2[C@@H](CCCCc3ccccc3)C(=O)O[C@@H]3O[C@@]4(C)CC[C@@H]1[C@]32OO4	8	–	–	–
O=C(/C=C/C=C/c1ccc2c(c1)OCO2)NCC1CCCCC1	–	–	–	IC50 (Trypanosoma cruzi): 81 µM
C(/C=C/c1ccc2c(c1)OCO2)=C\CN1CCCCC1	–	–	–	IC50 (Trypanosoma cruzi): 10 µM
O=C(/C=C/C=C/c1ccc2c(c1)OCO2)OC1CCCCC1	–	–	–	IC50 (Trypanosoma cruzi): 83 µM
COc1ccc(CCC[C@H]2C(=O)O[C@@H]3O[C@@]4(C)CC[C@H]5[C@H](C)CC[C@@H]2[C@@]35OO4)cc1	12	–	–	–
C[C@@H]1CC[C@H]2[C@H](CCCc3ccccc3)C(=O)O[C@@H]3O[C@@]4(C)CC[C@@H]1[C@]32OO4	45	–	–	–
CCCCCN(C)CCC(O)(P(=O)(O)O)P(=O)(O)O [IBANDRONIC ACID]	–	59	54	–
c1ccc(Oc2ccc(OCN3CC3)cc2)cc1	–	–	–	IC50 (Trypanosoma cruzi): 42 µM
O=P(O)(O)C(N1CCSCC1)P(=O)(O)O [THIOMORPHOLINOMETHYLENEDIPHOSPHONIC ACID]	–	200	200	–
CCCCCCCCCCCCCCCCCC(O)(P(=O)(O)O)P(=O)(O)O	–	200	200	–
NCCC(O)(P(=O)(O)O)P(=O)(O)O [PAMIDRONIC ACID]	–	200	200	–
Cc1ccnc(NC(P(=O)(O)O)P(=O)(O)O)c1	–	200	200	–
N#CSCCOc1ccc(Nc2ccccc2)cc1	–	–	–	IC50 (Trypanosoma cruzi): 3 µM
CCCC[C@H]1C(=O)O[C@@H]2O[C@@]3(CC)CC[C@H]4[C@H](C)CC[C@@H]1[C@@]24OO3	36	–	–	–
CCC[C@@]12CC[C@H]3[C@H](C)CC[C@H]4CC(=O)O[C@H](O1)[C@]43OO2	41	–	–	–
O=P(O)(O)C(O)(Cc1c[nH]cn1)P(=O)(O)O	–	200	200	–
CCCCCCc1ccc(NC(P(=O)(O)O)P(=O)(O)O)cc1	–	103	36	–
NCCCCC(O)(P(=O)(O)O)P(=O)(O)O	–	200	200	–
CC(C)CNC(P(=O)(O)O)P(=O)(O)O [(ISOBUTYLAMINO)METHYLENEDIPHOSPHONIC ACID]	–	200	200	–

SMILES	IC50 (Leishmania donovani) [µM]	IC50 (Plasmodium falciparum) [µM]	IC50 (Entamoeba histolytica) [µM]	also measured
CC[C@H]1C(=O)O[C@@H]2O[C@@]3(C)CC[C@H]4[C@H](C)CC[C@@H]1[C@@]24OO3	61	–	–	–
O=C(O)/C=C/C=C/c1ccc2c(c1)OCO2 [PIPERIC ACID]	–	–	–	IC50 (Trypanosoma cruzi): 115 µM
O=P(O)(O)C(NC1CCC1)P(=O)(O)O [(CYCLOBUTYLAMINO)METHYLENEDIPHOSPHONIC ACID]	–	200	200	–
N#CSCCOc1ccc([S+]([O-])c2ccccc2)cc1 (stereo not drawn)	–	–	–	IC50 (Trypanosoma cruzi): 8 µM
CN(CCCc1ccccc1)CCCC(O)(P(=O)(O)O)P(=O)(O)O	–	23	45	–
CCCC[C@H]1C(=O)O[C@@H]2O[C@@]3(CCCCc4ccccc4)CC[C@H]4[C@H](C)CC[C@@H]1[C@@]24OO3	5	–	–	–
[N-]=[N+]=NCCOc1ccc(Oc2ccccc2)cc1	–	–	–	IC50 (Trypanosoma cruzi): 70 µM
O=P(O)(O)C(Nc1ccc(Br)cn1)P(=O)(O)O	–	200	44	–
C[C@@H]1CC[C@H]2CC(=O)O[C@@H]3O[C@@]4(C)CC[C@@H]1[C@@]23OO4	242	–	–	–
O=P(O)(O)C(CNc1ccncc1)P(=O)(O)O	–	200	200	–
CCCCNC(P(=O)(O)O)P(=O)(O)O [(BUTYLAMINO)METHYLENEDIPHOSPHONIC ACID]	–	200	200	–
CSc1ccc(CCC[C@H]2C(=O)O[C@@H]3O[C@@]4(C)CC[C@H]5[C@H](C)CC[C@@H]2[C@@]35OO4)cc1	1	–	–	–
C[C@@H]1CC[C@H]2[C@@H](CCCC(F)(F)F)C(=O)O[C@@H]3O[C@@]4(C)CC[C@@H]1[C@]32OO4	79	–	–	–
O=P(O)(O)C(Nc1ccc(O)cn1)P(=O)(O)O	–	197	96	–
C=P(O)(O)C(Nc1c(F)c(F)c(F)c(F)c1F)P(=O)(O)O (stereo not drawn)	–	200	200	–
C[C@@H]1CC[C@H]2[C@@H](CCCc3ccc(S(C)(=O)=O)cc3)C(=O)O[C@@H]3O[C@@]4(C)CC[C@@H]1[C@]32OO4	54	–	–	–
O=P(O)(O)C(O)(C1CC1)P(=O)(O)O [CYCLOPROPYL(HYDROXY)METHYLENEDIPHOSPHONIC ACID]	–	200	200	–
CCOC(=O)CC[C@@]12CC[C@H]3[C@H](C)CC[C@H]4CC(=O)O[C@H](O1)[C@]43OO2	31	–	–	–
O=C(CCCCc1ccc2c(c1)OCO2)N1CCCCC1 [TETRAHYDROPIPERINE]	–	–	–	IC50 (Trypanosoma cruzi): 19 µM
CSCCOc1ccc(Oc2ccccc2)cc1	–	–	–	IC50 (Trypanosoma cruzi): 100 µM
CCCC[C@@]12CC[C@H]3[C@H](C)CC[C@H]4CC(=O)O[C@H](O1)[C@]43OO2	258	–	–	–

SMILES	IC50 (Leishmania donovani) [µM]	IC50 (Plasmodium falciparum) [µM]	IC50 (Entamoeba histolytica) [µM]	also measured
C[C@@H]1CC[C@H]2[C@@H](CCCc3cccc(F)c3)C(=O)O[C@@H]3O[C@@]4(C)CC[C@@H]1[C@]32OO4	4	–	–	–
C[C@@H]1CC[C@H]2[C@@H](CCCc3ccc(C(F)(F)F)cc3)C(O)O[C@@H]3O[C@@]4(C)CC[C@@H]1[C@]32OO4 (stereo partly drawn)	3	–	–	–
CC(N)CC(O)(P(=O)(O)O)P(=O)(O)O (stereo not drawn)	–	200	200	–
O=C(Cn1ccnc1[N+](=O)[O-])NCc1ccccc1 [BENZNIDAZOLE]	–	–	–	IC50 (Trypanosoma cruzi): 3 µM
O=P(O)(O)C(N1CCCCCC1)P(=O)(O)O [N-(HEXAMETHYLENEIMINO)METHYLENEBISPHOSPHONIC ACID]	–	200	200	–
N#CSCCOc1ccc2[nH]c3ccccc3c2c1	–	–	–	IC50 (Trypanosoma cruzi): 10 µM
Nc1ncnc2c1ncn2[C@@H]1O[C@H](C[C@@H](N)CC[C@H](N)C(=O)O)[C@@H](O)[C@H]1O [SINEFUNGIN]	1	–	–	–
COc1ccc(CCNC(=O)/C=C/C=C/c2ccc3c(c2)OCO3)cc1OC	–	–	–	IC50 (Trypanosoma cruzi): 66 µM
O=P(O)(O)C(N1CCCCC1)P(=O)(O)O	–	200	200	–
Cc1cccnc1NC(P(=O)(O)O)P(=O)(O)O	–	200	200	–
[N-]=[N+]=NC(CO)COc1ccc(Oc2ccccc2)cc1 (stereo not drawn)	–	–	–	IC50 (Trypanosoma cruzi): 70 µM
O=P(O)(O)C(N1CCC(O)CC1)P(=O)(O)O	–	200	200	–
O=P(O)(O)CC(c1cccnc1)P(=O)(O)O (stereo not drawn)	–	200	200	–
O=P(O)(O)CC(c1ccncc1)P(=O)(O)O (stereo not drawn)	–	200	200	–
O=P(O)(O)C(O)(Cc1ccccc1)P(=O)(O)O	–	8	200	–
C[C@@H]1CC[C@H]2[C@@H](CCCc3cc(F)cc(F)c3)C(=O)O[C@@H]3O[C@@]4(C)CC[C@@H]1[C@]32OO4	50	–	–	–
Nc1ccc(CC(O)(P(=O)(O)O)P(=O)(O)O)cc1	–	200	200	–
NCCCC(O)(P(=O)(O)O)P(=O)(O)O [ALENDRONIC ACID]	–	200	200	–
C=CC[C@H]1C(=O)O[C@@H]2O[C@@]3(C)CC[C@H]4[C@H](C)CC[C@@H]1[C@@]24OO3	18	–	–	–
O=P(O)(O)C(Nc1ccc2c(c1)CCC2)P(=O)(O)O	–	200	200	–
CC(C)CCC[C@H]1C(=O)O[C@@H]2O[C@@]3(C)CC[C@H]4[C@H](C)CC[C@@H]1[C@@]24OO3	9	–	–	–
